Measured values reported in patent US20240191303A1, “METHODS FOR OPTIMIZING THE TREATMENT OF COLORECTAL CANCER” (Brown University, priority 2021, published 2024).
“Also recorded” adds a separate entry of the source. Like-named read-outs stand apart in the source and are kept apart here.

Assays:
[1] = system: HCT116 and HCT116 p53−/− cells; assay: Cytokine profiling of cell supernatants (Luminex 200), p53 status not separated; format: cell-based, human; details: for VEGF production/release: both HCT116 and HCT116 p53−/−
Protocol: A total of 4×10^4 HCT116 or HCT116 p53^−/− cells were plated per well of a 24-well plate and incubated twelve-sixteen hours before treatment with 55-fluorouracil, CPT-11, oxaliplatin, cisplatin, or various combination treatments at the appropriate IC50 (combination treatments received each drug at their IC50). Cell supernatants were collected at forty-eight hours after treatment and stored at −20° C. Samples were prepared and run in triplicate on a Luminex 200 Instrument (R&D LX200-XPON-RUO). Sample preparation was conducted, and instrument settings were selected based on the Human Magnetix Luminex Assay (R&D LXSAHM) protocol.

[2] = system: HCT116 and HCT116 p53−/− cells; assay: Clariom D microarrays, RNA expression relative to untreated cells; format: cell-based, human; details: IC50 dose, 8 h; for BTG2 induction, rank in p53-dependent gene signature: fold change>2
Protocol: Microarrays. Total cellular RNA was isolated, and Clariom™ D microarrays were used to measure changes in RNA expression relative to untreated cells. A total of 7×10^5 HCT116 and HCT116 p53^−/− cells were plated in a 6-well plate and incubated for twelve-sixteen hours before being treated with 5-fluorouracil, CPT-11, oxaliplatin, or cisplatin at their respective IC50 doses for eight hours. Cell pellets were collected and split into two tubes, one for western blot analysis and one for RNA extraction. Samples were randomized, and RNA was isolated (Qiagen 74134) in five batches to ensure a high-quality RNA product. Acceptable RNA concentration and quality were verified with Nanodrop and Bioanalyzer measurements. Clariom D Microarrays (ThermoFisher 902923) were conducted according to the manufacturer's protocol in two batches on randomized samples to limit batch effects.
Statistical analysis. TAC software was used to calculate fold changes and statistical significance. Microarrays Applied Biosystems Transcriptomic Analysis Console (TAC) software was used to calculate fold-changes in gene expression relative to the untreated control cells. p-values<0.05 were considered significant.
To define a pan-drug signature and to evaluate heterogeneity in the p53 response on a whole-transcriptome scale, the inventors treated HCT116 and HCT116 p53^−/− cells with each of the four drugs at their IC50 for eight hours. The RNA expression relative to an untreated control was measured using microarray analysis. Upregulation of p53 in these samples and equal induction of cell death at this dose and time point was validated by Western blot and CellTiterGlo, respectively, before microarray analysis. […] Each internal control had tightly clustered triplicates. Quality control measurements were also determined to be satisfactory for further analysis.

HCT116 p53−/− cells = assay: Cytokine profiling of cell supernatants (Luminex 200), p53−/− cells; format: cell-based, human; details: IC50, 48 h
Protocol: (§1) Cytokine profiling. A total of 4×10^4 HCT116 or HCT116 p53^−/− cells were plated per well of a 24-well plate and incubated twelve-sixteen hours before treatment with […], CPT-11, oxaliplatin, cisplatin, or various combination treatments at the appropriate IC50 (combination treatments received each drug at their IC50). Cell supernatants were collected at forty-eight hours after treatment and stored at −20° C. Samples were prepared and run in triplicate on a Luminex 200 Instrument (R&D LX200-XPON-RUO). Sample preparation was conducted, and instrument settings were selected based on the Human Magnetix Luminex Assay (R&D LXSAHM) protocol.
(§2) Cytokine profiling. Results were analyzed in GraphPad prism, and statistical significance across drugs was determined separately for wild-type and ^−/− cells with a one-way ANOVA. p-values<0.05 were considered significant.
(§3) HCT116 and HCT116 p53^−/− cells were treated with the four drugs (5-FU, CPT-11, oxaliplatin, and cisplatin) at their IC50s and combination treatment groups received two-three drugs, each at their individual IC50 concentration.

[3] = oxaliplatin-treated mice; cited from earlier work
HCT116 cells (wild-type) = assay: Cytokine profiling of cell supernatants (Luminex 200), wild-type cells; format: cell-based, human; details: IC50, 48 h
Protocol: as §1, §2, §3

[4] = cited from earlier work
[5] = drug at IC50, 48 h, HCT116 vs HCT116 p53−/−
[6] = drug(s) each at IC50, 48 h, vs control

Question: Which “p53 dependence of TRAILR2 regulation” value [1, 5] does the source give for O=c1[nH]cc(F)c(=O)[nH]1 [5-fluorouracil, 5-Fluorouracil] here?
Answer: The value was “p53-independent”.

Question: And the VEGF production/release ([1]; drug at IC50, 48 h)?
Answer: The VEGF production/release was “downregulated”.

Question: What about the “TRAILR2 level in cell supernatant” value ([1]; drug at IC50, 48 h, vs control) of the same compound?
Answer: The value was “down-regulated”.

Question: And the BAX transcript regulation [2]?
Answer: The BAX transcript regulation was “slight preferential upregulation; also recorded: preferentially upregulated”.

Question: And the histone gene regulation [2]?
Answer: Its histone gene regulation is “strikingly unique down-regulation; also recorded: uniquely down-regulated”.

Question: What about the “transcripts of the 5-fluorouracil/CPT-11/oxaliplatin-specific signature (e.g., SERPINE1, CEACAM1, C1orf116)” value [2] of the same compound?
Answer: The value was “upregulated”.

Question: What about the “BTG2 induction, rank in p53-dependent gene signature” value (from here on “BTG2 induction, rank”) [2] of the same compound?
Answer: The value was “top upregulated gene; also recorded: most highly induced gene”.

Question: Which results are given for CCc1c2c(nc3ccc(OC(=O)N4CCC(N5CCCCC5)CC4)cc13)-c1cc3c(c(=O)n1C2)COC(=O)[C@]3(O)CC [CPT-11, Irinotecan]?
Answer: VEGF production/release ([1]; drug at IC50, 48 h): downregulated; TRAILR2 level in cell supernatant ([1]; drug at IC50, 48 h, vs control): not affected; IL-8 level in cell supernatant [1, 6]: moderate increase; DRAM1 transcript regulation [2]: p53-dependent, CPT-11-specific regulation; FDXR transcript regulation [2]: p53-dependent, CPT-11-specific regulation; TLR3 transcript regulation [2]: p53-dependent, CPT-11-specific regulation; transcripts of the 5-fluorouracil/CPT-11/oxaliplatin-specific signature (e.g., SERPINE1, CEACAM1, C1orf116) [2]: upregulated; BTG2 induction, rank in p53-dependent gene signature [2]: second most highly induced gene

Question: For N.N.[Cl][Pt][Cl] [cisplatin], which “p53 dependence of TRAILR2 regulation” value [1, 5] is on record?
Answer: The value was “despite p53 status”.

Question: What about the VEGF production/release ([1]; drug at IC50, 48 h) of the same compound?
Answer: The VEGF production/release was “downregulated”.

Question: What about the “TRAILR2 level in cell supernatant” value ([1]; drug at IC50, 48 h, vs control) of the same compound?
Answer: The value was “increased”.

Question: And the “ferritin level in cell supernatant” value [1, 6]?
Answer: Its value is “increase”.

Question: And the “ferritin level in cell supernatant” value (HCT116 p53−/− cells)?
Answer: The value was “large increase”.

Question: And the PITPNC1 transcript regulation [2]?
Answer: The PITPNC1 transcript regulation was “downregulation”.

Question: And the PRPF39 transcript regulation [2]?
Answer: The PRPF39 transcript regulation was “upregulation”.

Question: And the ROR1 transcript regulation [2]?
Answer: The ROR1 transcript regulation was “downregulation”.

Question: And the “transcripts of the 5-fluorouracil/CPT-11/oxaliplatin-specific signature (e.g., SERPINE1, CEACAM1, C1orf116)” value [2]?
Answer: The value was “unaffected”.

Question: And the “BTG2 induction, rank” value [2]?
Answer: The value was “top upregulated gene; also recorded: most highly induced gene”.

Question: For CN(C)C(=N)N=C(N)N [metformin], which “reversal of oxaliplatin-induced neuronal damage” value [3] is on record?
Answer: The value was “reversible”.

Question: For O=C1[O][Pt]2([NH][C@@H]3CCCC[C@H]3[NH]2)[O]C1=O [oxaliplatin, Oxaliplatin], which “IL-8 level in cell supernatant” value [1] is on record?
Answer: The value was “increase”.

Question: What about the “TRAILR2 level in cell supernatant” value [1] of the same compound?
Answer: Its value is “down-regulated”.

Question: What about the “p53 dependence of TRAILR2 regulation” value [1] of the same compound?
Answer: The value was “dependent on p53”.

Question: And the VEGF production/release ([1]; drug at IC50, 48 h)?
Answer: The VEGF production/release was “downregulated”.

Question: What about the “IL-8 level in cell supernatant” value (HCT116 cells (wild-type)) of the same compound?
Answer: Its value is “did not affect”.

Question: What about the “IL-8 level in cell supernatant” value (HCT116 p53−/− cells) of the same compound?
Answer: Its value is “induced”.

Question: What about the ATF3 transcript regulation [2] of the same compound?
Answer: The ATF3 transcript regulation was “Upregulation”.

Question: And the FOS transcript regulation [2]?
Answer: The FOS transcript regulation was “uniquely upregulated”.

Question: And the SAT1 transcript regulation [2]?
Answer: The SAT1 transcript regulation was “uniquely upregulated”.

Question: What about the SUSD2 transcript regulation [2] of the same compound?
Answer: Its SUSD2 transcript regulation is “uniquely upregulated”.

Question: What about the “transcripts of the 5-fluorouracil/CPT-11/oxaliplatin-specific signature (e.g., SERPINE1, CEACAM1, C1orf116)” value [2] of the same compound?
Answer: Its value is “upregulated”.

Question: And the “BTG2 induction, rank” value [2]?
Answer: Its value is “top upregulated gene; also recorded: most highly induced gene”.

Question: And the “peripheral neuropathy, share of patients” value [4]?
Answer: The value was 30-50%.

Question: What about the “neuronal damage (upregulation of FOS and ATF3)” value [3] of the same compound?
Answer: Its value is “neuronal damage”.
